Values of other authors as cited in patent US10010703B2, “Drug device configured for wireless communication” (POP TEST ABUSE DETERRENT TECHNOLOGY LLC, priority 2014, dated 2018).

Tests used:
estrogen receptor = target: T1, estrogen receptor (Homo sapiens, UniProt P03372)
T1 sequence (P03372 1-595): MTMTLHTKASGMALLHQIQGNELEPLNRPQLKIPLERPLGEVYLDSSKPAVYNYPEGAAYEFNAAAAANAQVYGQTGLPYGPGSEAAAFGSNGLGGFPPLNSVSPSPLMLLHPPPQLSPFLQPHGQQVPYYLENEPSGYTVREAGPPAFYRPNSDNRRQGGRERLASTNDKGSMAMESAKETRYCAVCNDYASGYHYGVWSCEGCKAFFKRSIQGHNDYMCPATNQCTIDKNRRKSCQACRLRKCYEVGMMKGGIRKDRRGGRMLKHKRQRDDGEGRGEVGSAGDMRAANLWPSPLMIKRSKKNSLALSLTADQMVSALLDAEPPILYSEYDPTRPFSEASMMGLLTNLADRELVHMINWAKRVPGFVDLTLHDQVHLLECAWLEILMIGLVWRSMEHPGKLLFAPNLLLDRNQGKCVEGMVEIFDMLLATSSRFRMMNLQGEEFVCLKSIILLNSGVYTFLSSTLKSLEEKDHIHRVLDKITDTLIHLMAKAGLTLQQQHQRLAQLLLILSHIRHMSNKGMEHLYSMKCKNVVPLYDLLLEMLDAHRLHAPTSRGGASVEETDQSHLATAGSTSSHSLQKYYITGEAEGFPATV

[1] = phase I and phase II clinical trials
glucocorticoid receptor = target: T2, glucocorticoid receptor (Homo sapiens, UniProt P04150)
T2 sequence (P04150 1-777): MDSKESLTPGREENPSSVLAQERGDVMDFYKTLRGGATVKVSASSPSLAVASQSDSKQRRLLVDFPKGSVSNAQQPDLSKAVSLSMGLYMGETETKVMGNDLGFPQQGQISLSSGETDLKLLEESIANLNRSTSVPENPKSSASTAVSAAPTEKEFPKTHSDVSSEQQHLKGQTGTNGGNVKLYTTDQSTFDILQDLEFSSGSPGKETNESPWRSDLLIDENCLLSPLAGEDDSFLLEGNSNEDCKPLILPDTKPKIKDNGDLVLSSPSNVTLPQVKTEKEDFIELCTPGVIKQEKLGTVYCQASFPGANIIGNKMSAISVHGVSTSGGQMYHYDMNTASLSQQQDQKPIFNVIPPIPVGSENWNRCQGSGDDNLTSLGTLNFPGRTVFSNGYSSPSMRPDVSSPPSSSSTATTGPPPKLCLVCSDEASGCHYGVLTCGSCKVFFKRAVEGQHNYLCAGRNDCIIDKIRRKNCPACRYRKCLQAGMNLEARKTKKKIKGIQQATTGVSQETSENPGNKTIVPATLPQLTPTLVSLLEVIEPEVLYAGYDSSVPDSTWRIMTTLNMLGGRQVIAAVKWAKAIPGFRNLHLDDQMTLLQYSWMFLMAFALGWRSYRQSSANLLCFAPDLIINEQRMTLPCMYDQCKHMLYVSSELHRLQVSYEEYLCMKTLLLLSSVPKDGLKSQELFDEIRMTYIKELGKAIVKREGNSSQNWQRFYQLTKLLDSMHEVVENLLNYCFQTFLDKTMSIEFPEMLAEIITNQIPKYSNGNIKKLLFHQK

progesterone receptor = target: T3, progesterone receptor (Homo sapiens, UniProt P06401)
T3 sequence (P06401 1-933): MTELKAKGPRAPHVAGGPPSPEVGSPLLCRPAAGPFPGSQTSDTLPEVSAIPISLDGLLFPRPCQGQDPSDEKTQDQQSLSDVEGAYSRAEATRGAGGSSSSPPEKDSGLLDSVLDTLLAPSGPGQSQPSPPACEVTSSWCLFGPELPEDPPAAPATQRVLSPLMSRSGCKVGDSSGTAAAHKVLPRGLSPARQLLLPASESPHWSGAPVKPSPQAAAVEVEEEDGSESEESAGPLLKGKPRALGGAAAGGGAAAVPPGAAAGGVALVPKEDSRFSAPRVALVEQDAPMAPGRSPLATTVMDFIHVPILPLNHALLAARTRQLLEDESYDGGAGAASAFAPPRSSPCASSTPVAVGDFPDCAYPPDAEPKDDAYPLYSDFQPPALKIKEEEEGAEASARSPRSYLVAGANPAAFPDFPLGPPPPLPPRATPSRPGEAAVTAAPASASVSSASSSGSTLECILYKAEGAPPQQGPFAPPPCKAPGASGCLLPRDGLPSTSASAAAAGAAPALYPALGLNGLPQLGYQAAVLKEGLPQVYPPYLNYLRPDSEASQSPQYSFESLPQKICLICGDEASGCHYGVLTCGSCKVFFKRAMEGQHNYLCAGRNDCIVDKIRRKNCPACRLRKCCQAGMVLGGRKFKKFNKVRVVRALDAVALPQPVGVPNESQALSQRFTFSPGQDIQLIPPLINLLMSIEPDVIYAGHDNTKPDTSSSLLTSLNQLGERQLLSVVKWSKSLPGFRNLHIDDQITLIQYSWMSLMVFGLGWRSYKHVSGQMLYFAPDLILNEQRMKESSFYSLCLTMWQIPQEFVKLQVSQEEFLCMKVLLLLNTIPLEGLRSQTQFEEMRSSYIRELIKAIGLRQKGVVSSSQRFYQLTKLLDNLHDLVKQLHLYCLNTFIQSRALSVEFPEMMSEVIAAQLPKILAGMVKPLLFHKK

- affinity for / cross-binding to estrogen receptor (estrogen receptor): without significant cross-binding
- glucocorticoid receptor binding affinity (glucocorticoid receptor): high
- affinity for / cross-binding to progesterone receptor (progesterone receptor): without significant cross-binding
SMILES: CC#C[C@]1(O)CC[C@H]2[C@@H]3CCC4=CC(=O)CCC4=C3[C@@H](c3ccc4c(c3)OCO4)C[C@@]21C [ORG 34517, (11β,17β)-11-(1,3-benzodioxol-5-yl)-17-hydroxy-17-(1-propynyl) estra-4,9-dien-3-one]
- significant toxicities and side effects [1]: none were identified
